Experimental data: PubChem BioAssay AID248 (DTP/NCI, 2004)
Values joined by “and” are separate entries in the source; they are usually repeats but may differ in a detail not shown here. Identical values can stand only once. Toxic doses and inconclusive results are not listed. Rule as the data show it: active = T/C of 150% or more; inactive = T/C below 125%.

Tested on: L1210 leukemia ip in BDF1 mice, survival T/C
Test: NCI In Vivo Anticancer Drug Screen. Data for tumor model L1210 Leukemia (intraperitoneal) in B6D2F1 (BDF1) mice
Conditions: endpoint: mean survival time, higher = longer survival
Experimental: The antitumor activity of compounds was measured in mice bearing transplantable tumors. Survival or tumor size were measured and the results are expressed as the measurement made in the treated group (T) divided by the measurement made in the vehicle treated control group (C). The tumor model used in this assay is L1210 Leukemia (intraperitoneal) in B6D2F1 (BDF1) mice

[1] = dose: 200.0 mg/kg/injection, schedule: Q01DX001 (ip), vehicle: carboxymethylcellulose (CMC)
[2] = dose: 400.0 mg/kg/injection, schedule: Q01DX001 (ip), vehicle: carboxymethylcellulose (CMC)
[3] = dose: 100.0 mg/kg/injection, schedule: Q04DX002 (ip), vehicle: Klucel (hydroxypropylcellulose) (HPC)
[4] = dose: 200.0 mg/kg/injection, schedule: Q04DX002 (ip), vehicle: Klucel (hydroxypropylcellulose) (HPC)
[5] = dose: 400.0 mg/kg/injection, schedule: Q04DX002 (ip), vehicle: Klucel (hydroxypropylcellulose) (HPC)
[6] = dose: 100.0 mg/kg/injection, schedule: Q01DX009 (ip), vehicle: Klucel (hydroxypropylcellulose) (HPC)
[7] = dose: 100.0 mg/kg/injection, schedule: Q04DX003 (ip), vehicle: Klucel (hydroxypropylcellulose) (HPC)
[8] = dose: 200.0 mg/kg/injection, schedule: Q01DX009 (ip), vehicle: Klucel (hydroxypropylcellulose) (HPC)
[9] = dose: 200.0 mg/kg/injection, schedule: Q04DX003 (ip), vehicle: Klucel (hydroxypropylcellulose) (HPC)
[10] = dose: 400.0 mg/kg/injection, schedule: Q01DX009 (ip), vehicle: Klucel (hydroxypropylcellulose) (HPC)
[11] = dose: 400.0 mg/kg/injection, schedule: Q04DX003 (ip), vehicle: Klucel (hydroxypropylcellulose) (HPC)
[12] = dose: 100.0 mg/kg/injection, schedule: Q01DX001 (ip), vehicle: saline
[13] = dose: 200.0 mg/kg/injection, schedule: Q01DX001 (ip), vehicle: saline
[14] = dose: 15.0 mg/kg/injection, schedule: Q01DX Z (ip), vehicle: saline
[15] = dose: 30.0 mg/kg/injection, schedule: Q01DX Z (ip), vehicle: saline
[16] = dose: 60.0 mg/kg/injection, schedule: Q01DX Z (ip), vehicle: saline
[17] = dose: 60.0 mg/kg/injection, schedule: Q01DX Z (oral), vehicle: saline
[18] = dose: 120.0 mg/kg/injection, schedule: Q01DX Z (oral), vehicle: saline
[19] = dose: 240.0 mg/kg/injection, schedule: Q01DX Z (oral), vehicle: saline

Measured: T/C

COC1OC(COS(=O)OC)C(O)C(O)C1OS(=O)OC (stereo unspecified)
inactive: dose: 100.0 mg/kg/injection, schedule: Q01DX001 (ip), vehicle: carboxymethylcellulose (CMC) 100 % of control | [1] 97 % of control | [2] 94 % of control

Nc1nnnn1-c1ccccc1
inactive: [3] 102 % of control | [4] 102 % of control | [5] 91 % of control

Cc1cc(C)nc(NC(=O)Nc2cc(Cl)ccc2C)c1
inactive: dose: 100.0 mg/kg/injection, schedule: Q01DX001 (ip), vehicle: Klucel (hydroxypropylcellulose) (HPC) 90 % of control | [6] 92 % of control | [3] 100 % of control | [7] 93 % of control | dose: 200.0 mg/kg/injection, schedule: Q01DX001 (ip), vehicle: Klucel (hydroxypropylcellulose) (HPC) 100 % of control | [8] 94 % of control and 91 % of control | [4] 96 % of control | [9] 92 % of control | dose: 400.0 mg/kg/injection, schedule: Q01DX001 (ip), vehicle: Klucel (hydroxypropylcellulose) (HPC) 95 % of control | [10] 94 % of control and 96 % of control | [5] 100 % of control | [11] 109 % of control

Cc1nc2ccccc2c(=O)n1N
inactive: [12] 111 % of control | [13] 105 % of control

Cc1ccc(/C=N/N=C(N)N)cc1
inactive: [14] 104 % of control | [15] 98 % of control | dose: 30.0 mg/kg/injection, schedule: Q01DX Z (oral), vehicle: saline 99 % of control | [16] 96 % of control | [17] 94 % of control | [18] 97 % of control | [19] 100 % of control

OCC1=CCC2c3[nH]c4ccccc4c3CCN2C1 (stereo unspecified)
inactive: dose: 100.0 mg/kg/injection, schedule: Q04DX003 (ip), vehicle: saline with Tween-80 106 % of control | dose: 200.0 mg/kg/injection, schedule: Q04DX003 (ip), vehicle: saline with Tween-80 90 % of control

CC(C)=NN=C(N)N
inactive: dose: 15.0 mg/kg/injection, schedule: Q01DX Z (ip), vehicle: carboxymethylcellulose (CMC) 100 % of control | [14] 107 % of control | dose: 30.0 mg/kg/injection, schedule: Q01DX Z (ip), vehicle: carboxymethylcellulose (CMC) 101 % of control | [15] 101 % of control | dose: 60.0 mg/kg/injection, schedule: Q01DX Z (ip), vehicle: carboxymethylcellulose (CMC) 96 % of control and 106 % of control | [16] 95 % of control | [17] 92 % of control | dose: 120.0 mg/kg/injection, schedule: Q01DX Z (ip), vehicle: carboxymethylcellulose (CMC) 93 % of control and 95 % of control | dose: 120.0 mg/kg/injection, schedule: Q01DX Z (ip), vehicle: saline 95 % of control | dose: 120.0 mg/kg/injection, schedule: Q01DX Z (oral), vehicle: carboxymethylcellulose (CMC) 106 % of control | [18] 109 % of control | dose: 240.0 mg/kg/injection, schedule: Q01DX Z (ip), vehicle: carboxymethylcellulose (CMC) 101 % of control | dose: 240.0 mg/kg/injection, schedule: Q01DX Z (ip), vehicle: saline 88 % of control | dose: 240.0 mg/kg/injection, schedule: Q01DX Z (oral), vehicle: carboxymethylcellulose (CMC) 102 % of control | [19] 97 % of control | dose: 480.0 mg/kg/injection, schedule: Q01DX Z (oral), vehicle: carboxymethylcellulose (CMC) 116 % of control | dose: 480.0 mg/kg/injection, schedule: Q01DX Z (oral), vehicle: saline 92 % of control

COC(=O)c1cc(NC(=O)Nc2ccc(Cl)cc2[N+](=O)[O-])cc(C(=O)OC)c1
inactive: [6] 92 % of control | [8] 101 % of control | [10] 93 % of control

O=C(COc1ccccc1)Nc1ccccc1C(=O)O
inactive: dose: 100.0 mg/kg/injection, schedule: Q01DX001 (ip), vehicle: gum acacia 97 % of control | dose: 200.0 mg/kg/injection, schedule: Q01DX001 (ip), vehicle: gum acacia 90 % of control | dose: 400.0 mg/kg/injection, schedule: Q01DX001 (ip), vehicle: gum acacia 90 % of control

O=C(Nc1cccc(Cl)c1)Oc1ccc(S(=O)(=O)F)cc1Cl
inactive: dose: 100.0 mg/kg/injection, schedule: Q04DX002 (ip), vehicle: saline with Tween-80 94 % of control | dose: 200.0 mg/kg/injection, schedule: Q04DX002 (ip), vehicle: saline with Tween-80 91 % of control

CC(=O)Oc1ccc(/C=C/c2ccncc2)cc1
inactive: [6] 97 % of control | [8] 100 % of control | [10] 104 % of control

CN(C)c1nc(N)c(C#N)c(C#N)c1C#N
inactive: dose: 50.0 mg/kg/injection, schedule: Q01DX001 (ip), vehicle: saline 96 % of control | [12] 96 % of control | [13] 100 % of control

C(=C\c1ccccc1)/C[n+]1cccc2ccccc21
inactive: dose: 75.0 mg/kg/injection, schedule: Q01DX001 (ip), vehicle: saline 89 % of control

O=C1C2CCC(C2)C1C(O)(C(F)(F)Cl)C(F)(F)Cl (stereo unspecified)
inactive: dose: 50.0 mg/kg/injection, schedule: Q01DX009 (ip), vehicle: saline with Tween-80 92 % of control | dose: 100.0 mg/kg/injection, schedule: Q01DX009 (ip), vehicle: saline with Tween-80 90 % of control | dose: 200.0 mg/kg/injection, schedule: Q01DX009 (ip), vehicle: saline with Tween-80 90 % of control | dose: 400.0 mg/kg/injection, schedule: Q01DX009 (ip), vehicle: saline with Tween-80 92 % of control

CC1c2cc(C(=O)O)ccc2OC1(C)C (stereo unspecified)
inactive: [12] 96 % of control | [13] 102 % of control | dose: 400.0 mg/kg/injection, schedule: Q01DX001 (ip), vehicle: saline 91 % of control

O=C(O)CSc1ccc2ccccc2c1
inactive: [3] 89 % of control | [4] 111 % of control | [5] 108 % of control

OC(CN1CC1)c1ccccc1 (stereo unspecified)
inactive: dose: 20.0 mg/kg/injection, schedule: Q01DX009 (ip), vehicle: Klucel (hydroxypropylcellulose) (HPC) 95 % of control | dose: 20.0 mg/kg/injection, schedule: Q04DX003 (ip), vehicle: Klucel (hydroxypropylcellulose) (HPC) 97 % of control | dose: 40.0 mg/kg/injection, schedule: Q01DX009 (ip), vehicle: Klucel (hydroxypropylcellulose) (HPC) 95 % of control | dose: 40.0 mg/kg/injection, schedule: Q04DX003 (ip), vehicle: Klucel (hydroxypropylcellulose) (HPC) 102 % of control | dose: 80.0 mg/kg/injection, schedule: Q04DX003 (ip), vehicle: Klucel (hydroxypropylcellulose) (HPC) 97 % of control

CN(C)c1ccc2c(c1)C(Br)c1ccccc1-2 (stereo unspecified)
inactive: [6] 106 % of control | [7] 94 % of control | [8] 107 % of control | [9] 96 % of control | [11] 97 % of control

c1ccc2c(c1)C[N+]1(Cc3ccccc3-2)CC12CCCCC2
inactive: dose: 12.0 mg/kg/injection, schedule: Q01DX009 (ip), vehicle: saline 110 % of control | dose: 25.0 mg/kg/injection, schedule: Q01DX009 (ip), vehicle: saline 104 % of control | dose: 50.0 mg/kg/injection, schedule: Q01DX009 (ip), vehicle: saline 100 % of control

O=C(Nc1ccc(S(=O)(=O)O)c2ccccc12)c1ccc(C(=O)Nc2ccc(S(=O)(=O)O)c3ccccc23)cc1
inactive: dose: 62.5 mg/kg/injection, schedule: Q01DX Z (ip), vehicle: carboxymethylcellulose (CMC) 92 % of control | dose: 125.0 mg/kg/injection, schedule: Q01DX Z (ip), vehicle: carboxymethylcellulose (CMC) 89 % of control | dose: 250.0 mg/kg/injection, schedule: Q01DX Z (ip), vehicle: carboxymethylcellulose (CMC) 90 % of control | dose: 500.0 mg/kg/injection, schedule: Q01DX Z (ip), vehicle: carboxymethylcellulose (CMC) 89 % of control

CC(C)(C)c1cc(/C=N/NC(=S)Nc2ccccc2)cc(C(C)(C)C)c1O
inactive: [3] 96 % of control | [4] 89 % of control | [5] 92 % of control

Oc1ccc(C2SC(c3ccc(O)cc3)SC(c3ccc(O)cc3)S2)cc1 (stereo unspecified)
inactive: [1] 88 % of control | [2] 88 % of control

N=c1ccc2ccccc2n1O
inactive: dose: 6.25 mg/kg/injection, schedule: Q04DX003 (ip), vehicle: other 97 % of control | dose: 12.5 mg/kg/injection, schedule: Q04DX003 (ip), vehicle: other 95 % of control | dose: 25.0 mg/kg/injection, schedule: Q04DX003 (ip), vehicle: other 100 % of control
